Test results published in patent US12491175B2, “Composition containing carotenoids and use thereof for protecting neurons against neurodegeneration” (priority 2019, dated 2025).

Assays:
[1] = tested on: HT22 neuronal cells; settings: for effect on cell death of HT22 neuronal cells induced by glutamate: glutamate at 10 mM, FIG. 1
Experimental: The HT22 neuronal cells (mouse hippocampus neuronal line) were treated for two hours with 50 μM of pigment, followed or not by the addition of 10 mM glutamate for 24 hours at 37° C. Cell viability (in %) was measured by an MTS test (by means of a CellTiter 96®Aqueous non-Radioactive Cell Proliferation Assay kit from Promega).
The HT22 cells were treated for 2 hours either with diadinoxanthin (FIG. 2) or violaxanthin (FIG. 3) or diatoxanthin (comparative test shown in FIG. 4) at different concentrations. For each of the concentrations, cell death was then induced by glutamate (10 mM) for 24 hours at 37° C. Cell viability (in %) was measured by an MTS test. The values shown are the mean±standard deviation (n=3).
The EC50 (half maximal effective concentration) is the concentration at which a molecule induces a response halfway between the baseline and the maximum effect after a certain exposure time thereof. This determines its efficacy.

[2] = tested on: HT22 neuronal cells; assay: Toxicity of pigment alone on HT22 neuronal cells (MTS cell viability); assay type: cell-based, mouse; settings: 50 μM pigment, no glutamate; FIG. 1 white rectangles

SMILES	effect on cell death of HT22 neuronal cells induced by glutamate [1]	EC50 ([1]; read-out: EC50 (half maximal effective concentration), dose-response, 2 hours pre-treatment, then glutamate 10 mM for 24 hours at 37° C., FIG. 2, FIG. 3) [µM]	toxicity of pigment alone (cell viability) [2]
CC1=C(C#C/C(C)=C/C=C/C(C)=C/C=C/C=C(C)/C=C/C=C(C)/C=C/[C@@]23O[C@]2(C)C[C@@H](O)CC3(C)C)C(C)(C)C[C@H](O)C1 [diadinoxanthin]	protective effect	22	non-toxic
CC(/C=C/C=C(C)/C=C/[C@@]12O[C@]1(C)C[C@@H](O)CC2(C)C)=C\C=C\C=C(C)\C=C\C=C(C)\C=C\[C@@]12O[C@]1(C)C[C@@H](O)CC2(C)C [violaxanthin]	protective effect		non-toxic
